These results are taken from patent US12258609B2, “Method for producing glycerides of hydroxycarboxylic acids” (KetoLipix Therapeutics GmbH, priority 2019, dated 2025).

Series [1] concerns Panzytrat® 40,000 (pancreatin).
Protocol: (§1) For the cleavage experiments under near-body conditions two media are investigated: • FaSSGF, which simulates the stomach • FaSSIF, which simulates the intestinal tract
In addition, in some experiments porcine pancreas is added (Panzytrat® 40,000, Fa. Allergan).
Cleavage with Gastric Medium: FaSSGF Medium • A so-called FaSSGF medium is prepared according to the manufacturer's specifications from the commercially available corresponding composition (available from Biorelevant, Ltd., Great Britain). • The resulting sample is divided into two batches of equal size. 10 wt.-% of the ternary glyceride mixture based on mono-, di- and triglycerides of 3-hydroxybutyric acid, as described hereinabove, is dissolved in each FaSSGF medium and left in a water bath at 35° C. for 24 hours.
Series [2] has as its system porcine pancreatic lipase type II (PPL type II). Conditions: pH 6.5.
Protocol: Further Cleavage with Bowl Medium: FaSSIF Medium • The FaSSIF medium is prepared according to the previous test according to the manufacturer's instructions. • The resulting sample is divided into two batches of equal size. 10 wt.-% of the ternary glyceride mixture of mono-, di- and triglycerides of 3-hydroxybutyric acids according to the invention is dissolved in each FaSSIF medium and left in a water bath at 35° C. for 24 hours.
For series [3] the following is noted: even if several grams are taken; acid and its salts; cited from earlier work.
The test system of series [4] is Panzytrat® 40,000 (pancreatin). Put plainly: Cleavage experiments with and without Panzytrat 40,000 in FaSSIF medium (simulates the intestinal tract, pH 6.5).
Protocol: as §1
Both media are from the company Biorelevant®, Ltd. in Great Britain. In addition, in some experiments porcine pancreas is added (Panzytrat® 40,000, Fa. Allergan).
Cleavage with Bowl Medium: FaSSIF Medium • The FaSSIF medium is prepared according to the manufacturer's instructions (Fa. Biorelevant, Ltd., Great Britain). • The sample obtained is divided into two equally sized preparations. 10 wt.-% of the aforementioned glyceride mixture based on a mixture of mono-, di- and triglycerides of 3-hydroxybutyric acids is dissolved in each FaSSIF medium and left in a water bath at 35° C. for 24 hours.

For the compound `CC(O)CC(=O)O` (stereo not drawn) [3-BHB-FS, 3-hydroxybutyric acid], the before splitting in series [1] (0 h) was found to be 0.43 % area. In addition, the “share in chromatogram, before splitting” value in series [1] (0 h, 10 wt.-%, pH 1.6) is on record as 0.43 % area. In addition, the “share in chromatogram, FaSSGF o.P. 24 h, 35° C.” value in series [1] (24 h, 10 wt.-%, pH 1.6) was determined as 26.21 % area. Further, the “change of content in FaSSGF medium” value in series [1] (pH 1.6) is listed as “strong increase”. For the same compound, the “share in chromatogram, FaSSGF m.P. 24 h, 35° C.” value in series [1] (pig, 24 h, 10 wt.-%, pH 1.6) amounted to 18.85 % area. Moreover, the before splitting 0 h is 0.04% in series [2] (0 h, 10 wt.-%) and 0.04 in series [4] (the 13th table, FaSSIF medium, 0 h, in %). Moreover, in series [2] (24 h, 10 wt.-%), the without enzyme 24 h, 35° C. was 0.02%. For the same compound, in series [2], the “change of content in FaSSIF medium with porcine pancreatic lipase” value is “slight increase”. Also, the with enzyme, 24 h, 35° C. in series [2] (pig, 24 h, 10 wt.-%) worked out at 1.79%. Also, the duration of ketosis result in series [3] is on record as “about three to four”. Further, the “conversion or cleavage, free acid formed” value in series [4] (FaSSIF conditions using Panzytrat) is given as 2.6%. The “change of content in FaSSIF medium” value in series [4] (FaSSIF, pH 6.5, 35° C., 24 hours, with and without pancreatin) was “slight increase”. The “share in chromatogram, FaSSIF 0 h, Start” value in series [4] (the 11th table, FaSSIF (bowel, pH = 6.5), 0 h) is on record as 0.04 % area. The “share in chromatogram, FaSSIF m.P. 24 h, 35° C.” value in series [4] (the 11th table, FaSSIF (bowel, pH = 6.5), with Panzytrat, 24 h, 35° C.) is reported as 2.60 % area. Also, the “share in chromatogram, FaSSIF o.P. 24 h, 35° C.” value in series [4] (the 11th table, FaSSIF (bowel, pH = 6.5), without Panzytrat, 24 h, 35° C.) is 0.02 % area. Besides, the “with Panzytrat 24 h, 35° C.” value in series [4] (the 13th table, FaSSIF medium pH 6.5, 1 wt.-% Panzytrat 40,000, 24 h, 35° C., in %) is 2.60. In addition, the “without Panzytrat 24 h, 35° C.” value in series [4] (the 13th table, FaSSIF medium pH 6.5, without Panzytrat, 24 h, 35° C., in %) was 0.02.
